Experimental data from US7932291B2, “Use of L-carnitine and its alkanoyl derivatives as osmotic agents in solutions for medical use” (Sigma-Tau Industrie Farmaceutiche Riunite S.p.A., priority 1999, dated 2011).

System: male Sprague-Dawley rats
Test: In-vivo peritoneal dialysis in rats: fluid volume recovered from the peritoneum
Parameters: species or system rat
Description: The peritoneal dialysis experiment was conducted in male Sprague-Dawley rats weighing 500-600 g (Charles River) maintained on a standard diet with water ad libitum. The animals were anaesthetized with an intraperitoneal injection of inactin (100 mg/kg) and were placed on an operating table at controlled temperature. The animals were submitted to a tracheostomy to cannulate the left jugular vein with a PESO medical silicone tube. Thirty minutes after administration of the anaesthetic the animals were infused with a saline solution at a rate of 2.3 ml/h throughout the period of the experiment. The dialysis solution (15 ml), after preheating to 37° C., was inoculated into the peritoneal cavity with a 15 teflon needle-cannula 1 h after administration of the anaesthetic. The amount of fluid injected was determined by weighing the syringe before and after injection of the fluid, using an electronic scale. At the end of each analysis period (2, 4 and 6 h), incisions were made in the rats' abdomens with an acusector and all the fluid present in the peritoneum was aspirated with a 1 ml syringe. After removing the surface fluid, the intestines were carefully shifted from the abdominal cavity to collect the residual fluid remaining on the dorsal wall. The fluid recovered was placed in a beaker and weighed. […]

C[N+](C)(C)C[C@H](O)CC(=O)[O-] [Carnitine, L-carnitine]
Quality as osmotic agent compared with glucose (rat peritoneal dialysis, 1.5-4.25%): at least as good as glucose | Time by which the increase in intraperitoneal fluid volume is completed / peak activity reached (rat, all concentrations used (1.5, 2.5, 4.25%)): ≤ 2 h
